From PubChem BioAssay (NCI)
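96-well plates; 48 h exposure; 5 concentrations. Endpoints by linear interpolation between flanking doses. Not reached: highest tested concentration assigned. GI50 marks 50% less growth. Definition used: TGI = concentration required for complete inhibition of growth.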

What was measured:
Assay in all cases: NCI-60 cell line screen, 48 h
BT-549 breast = tested on: BT-549 breast
COLO 205 colon = tested on: COLO 205 colon
DU-145 prostate = tested on: DU-145 prostate
HCC-2998 colon = tested on: HCC-2998 colon
HL-60(TB) leukemia = tested on: HL-60(TB) leukemia
HOP-92 NSCLC = tested on: HOP-92 NSCLC
MDA-MB-435 = tested on: MDA-MB-435
NCI-H23 lung = tested on: NCI-H23 lung
SK-OV-3 ovarian = tested on: SK-OV-3 ovarian
U251 CNS = tested on: U251 CNS

Row | Compound | GI50 (BT-549 breast) [nM] | TGI (BT-549 breast) [µM] | GI50 (COLO 205 colon) [nM] | TGI (COLO 205 colon) [µM] | GI50 (DU-145 prostate) [nM] | TGI (DU-145 prostate) [µM] | GI50 (HCC-2998 colon) [nM] | TGI (HCC-2998 colon) [µM] | GI50 (HL-60(TB) leukemia) [nM] | TGI (HL-60(TB) leukemia) [µM] | GI50 (HOP-92 NSCLC) [nM] | TGI (HOP-92 NSCLC) [µM] | GI50 (MDA-MB-435) [nM] | TGI (MDA-MB-435) [µM] | GI50 (NCI-H23 lung) [µM] | TGI (NCI-H23 lung) [µM] | GI50 (SK-OV-3 ovarian) [µM] | TGI (SK-OV-3 ovarian) [µM] | GI50 (U251 CNS) [nM] | TGI (U251 CNS) [µM]
1 | CC([C@H]1CCC2C3CCC4C[C@@H](NC=O)CC[C@]4(C)C3CC[C@@]21C)N(C)C (some centres undefined) | 6950 | 25.1 | 1540 | 3.11 | 4840 | 17.5 | 2480 | 7.29 | 2230 | 6.79 | 1130 | 7.61 | 2290 | 5.86 | 4.73 | 19 | 3.96 | 13.5 | 2960 | 13.8
2 | Cc1cccc(C)c1NC(=O)/C(Cl)=C(/Cl)C(=O)O |  | 31.5 |  | 11.4 |  | 64.8 |  | 32.2 |  | > 100 |  | 30.3 |  | 51 |  | 38.6 |  | 45.5 |  | 47.5
3 | c1ccc2[nH]c(SSc3nc4ncncc4[nH]3)nc2c1 | 2890 | > 100 | 2590 | 10.2 | 674 | > 100 | 1900 | > 100 | 710 | > 100 | 375 | > 90.8 | 446 | > 100 | 2.9 | > 100 | 0.37 | 34.2 | 8630 | > 100
4 | COc1ccc2c(c1)nc(N)c1c3cc(OC)c(OC)cc3cn21 | 827 | 15.2 |  | 0.521 |  | 8.63 | 43.4 | 16.5 | 196 | 0.622 | 5090 | 23.9 | < 10 |  |  | 5.7 | < 0.01 | 0.321 | 118 | 14.6
5 | C=C(Cl)COC(=O)Nc1cccc(Cl)c1 |  | 87.2 |  | > 100 |  | > 100 |  | > 100 |  | 94.6 |  | 64.9 |  | > 100 |  | 90.2 |  | > 100 |  | > 100
6 | CCCCCCCCCNCCCCCCCCC | 1930 | 3.38 | 1770 | 3.22 | 1850 | 3.74 | 1690 | 3.24 |  |  | 1470 | 3.03 | 1850 | 3.58 | 1.72 | 3.39 | 2.04 | 3.83 | 1710 | 3.15
7 | O=C(NC1CC1)c1ccc(-c2nc3ccc4[nH]ncc4c3c3c2CCCC3)cc1 | 1510 | 7.69 | 1800 | 10.4 | 2430 | 20.2 | 3270 | 10.1 | 1590 | 6.99 | 1450 | 25.2 | 1380 | 5.02 | 3.41 | 31.3 |  |  | 2190 | 13.7
8 | CN(C)CCCN=C(N)N |  | > 100 |  | > 100 |  | > 100 |  |  |  | > 100 |  | > 100 |  | > 100 |  | > 100 |  | > 100 |  | > 100
9 | CC1(C)NCCC[C@]2(C)[C@H]3C=CC4=C5C[C@](C)(CO)CC[C@]5(C)CC[C@@]4(C)[C@]3(C)CC[C@@H]12 | 3460 | 12.7 | 3630 | 13.9 | 2250 | 5.02 | 10100 | 23 | 2630 | 7.02 | 3100 | 14.6 | 3760 | 14 | 3.15 | 12.5 | 14.5 | 28.6 | 4170 | 15.9
10 | COc1cc(Cl)cc(-c2nn(C(=O)NCCN3CCN(C)CC3)cc2-c2ccncc2)c1 | 3370 | 18.6 | 9860 | 60.9 | 12300 | 66.5 | 17500 | 39.1 | 25600 | 75.8 | 2830 | 26.2 | 10400 | 35 | 20.1 | 82 | 5.44 | 28.8 | 15100 | > 100
11 | OCC(O)C(O)C(O)C1SC(c2ccccc2)=NN1c1ccccc1 (centres undefined) |  | > 100 |  | > 100 |  | > 100 |  | > 100 |  | > 100 |  | 63.4 |  | > 100 |  | > 95.7 |  | 76.9 |  | > 100
12 | Nc1ccc(C(=O)c2ccc(N)c(Br)c2)cc1Br | 1840 | 18.8 | 393 | 2.2 | 334 | 1.58 | 381 | 4.65 | 326 | 2.8 | 299 | 5.9 | 207 | 0.49 | 1.16 | > 100 | 0.425 | 32.6 | 419 | 18.3
13 | Cn1ccc2c(NCCN)c3c(c(NCCN)c21)C(=O)c1ccccc1C3=O | 7620 | 23.7 | 24400 | 68.4 | 453 | 6.05 | 1640 | 3.99 | 2910 | 64.1 | 718 | 2.58 | 1540 | 5.59 | 1.68 | 4.07 | 20.3 | 42.4 | 1030 | 9.88
14 | CCC1=C[C@@H]2CN(C1)Cc1c([nH]c3ccccc13)[C@@](C(=O)OC)(c1cc3c(cc1OC)N(C=O)[C@H]1[C@@](O)(C(=O)OC)[C@H](OC(C)=O)[C@]4(CC)[C@@H]5C[C@@H]5CN5CC[C@]31[C@@H]54)C2 | 1.66 | 0.211 | < 0.625 | 0.00122 | < 0.625 |  | 1.44 | > 6.25 | < 0.625 | < 0.000625 | 6.29 | 0.226 | < 0.625 | < 0.000625 | 0.00318 | > 6.25 | < 0.000625 |  | 0.676 | > 6.25
15 | COc1ccc(CNc2nc3cc(N)cc(N)c3nc2-c2ccccc2)cc1OC | 14800 | 32.5 | 7150 | > 48.8 | 41000 | > 93.6 | 17000 | 39.8 | 3170 | > 89.9 | 13400 | 29.8 | 2070 | 4.05 | 16.9 | 35.7 | 22.8 | 45.6 | 17300 | 38.1
